# Results from ChEMBL document CHEMBL4483862, “Open-source discovery of chemical leads for next-generation chemoprotective antimalarials” (2018).
# Tested on: Plasmodium berghei
# Assay: Luciferase/luciferin-expressing antifolate-resistant parasites were used to infect a culture of HepG2 cells that were pre-incubated with compounds. Infected hepatocytes emit light due to the luciferase reaction. Assay results are presented as the percent inhibition of light emission compared to control. […]
# Assay type: functional
# Details: sporozoite; for IC90: read-out: LUCIFERASE INFECTION ASSAY - IC90
# [1] = read-out: LUCIFERASE INFECTION ASSAY - IC50
Structure (SMILES),IC50 [1] [µM],IC90 [µM],other results
CCn1c(=O)c(=O)[nH]c2cc(C(=O)Nc3cccc(C#Cc4cccs4)c3)ccc21,> 10,> 10,
CC(C)c1ccc(-n2c(-c3ccccc3)c[n+]3c2CCc2ccccc2-3)cc1,,1.23,"IC50 (HEPG2TOX_HILL_SLOPE 1.23, HEPG2TOX_R_SQUARED 0.988, PBLUC_HILL_SLOPE 3.39, PBLUC_R_SQUARED 0.644, read-out: LUCIFERASE INFECTION ASSAY - IC50): 0.642 µM"
COCCOc1ccc(C(F)(F)F)cc1NC(=O)COC(=O)c1ccc2[nH]c3c(c2c1)CCCC3,,> 10,"IC50 (FFLUC_HILL_SLOPE 10.4, FFLUC_R_SQUARED 0.848, HEPG2TOX_HILL_SLOPE 1.66, HEPG2TOX_R_SQUARED 0.868, PBLUC_HILL_SLOPE 2.48, PBLUC_R_SQUARED 0.755, read-out: LUCIFERASE INFECTION ASSAY - IC50): 4.17 µM"
O=C(NCCc1ccccn1)c1ccc(Cl)c(S(=O)(=O)N(Cc2ccccc2)c2cccc(C(F)(F)F)c2)c1,,3.59,"IC50 (PBLUC_HILL_SLOPE 3, PBLUC_R_SQUARED 0.619, read-out: LUCIFERASE INFECTION ASSAY - IC50): 1.73 µM"
O=C(NC1CCCCC1C(F)(F)F)c1csc(-c2ccccc2)n1 (stereo not given),,3.92,"IC50 (HEPG2TOX_HILL_SLOPE 0.159, HEPG2TOX_R_SQUARED 0.617, PBLUC_HILL_SLOPE 14, PBLUC_R_SQUARED 0.734, read-out: LUCIFERASE INFECTION ASSAY - IC50): 3.35 µM"
O=C(N/N=C/c1c2ccccc2cc2ccccc12)c1ccc(Br)cc1,> 8.18,> 8.18,
CCNC(=O)N1CCc2nc(NCc3cccc(Oc4ccccc4)c3)ncc2C1,,3.94,"IC50 (HEPG2TOX_HILL_SLOPE 10.3, HEPG2TOX_R_SQUARED 0.577, PBLUC_HILL_SLOPE 136, PBLUC_R_SQUARED 0.208, read-out: LUCIFERASE INFECTION ASSAY - IC50): 3.87 µM"
CC1(C)CS/C(=N\Cc2ccccc2)N1C(=O)C(c1ccccc1)c1ccccc1,,> 10,"IC50 (PBLUC_HILL_SLOPE 1.51, PBLUC_R_SQUARED 0.0539, read-out: LUCIFERASE INFECTION ASSAY - IC50): > 10 µM"
CCCCNC(=O)c1c(NC(=O)c2ccccc2)nc2ccccn12,,7.86,"IC50 (FFLUC_HILL_SLOPE 2.02, FFLUC_R_SQUARED 0.16, HEPG2TOX_HILL_SLOPE 0.796, HEPG2TOX_R_SQUARED 0.541, PBLUC_HILL_SLOPE 4.74, PBLUC_R_SQUARED 0.419, read-out: LUCIFERASE INFECTION ASSAY - IC50): 4.95 µM"
CSc1sc(C(=O)N/N=C/c2ccccc2Cl)c2c1C(O)CCC2 (stereo not given),,> 8.66,"IC50 (HEPG2TOX_HILL_SLOPE 0.679, HEPG2TOX_R_SQUARED 0.968, PBLUC_HILL_SLOPE 1.34, PBLUC_R_SQUARED 0.516, read-out: LUCIFERASE INFECTION ASSAY - IC50): 2.1 µM"
CN(CC(=O)Nc1ccc(Cl)c(C(F)(F)F)c1)Cc1ccc(O)c2ncccc12,0.0645,0.191,
CCOC(=O)c1c(C)nc(-c2ccco2)nc1SCc1ncc(-c2ccc(F)cc2)o1,,3.58,"IC50 (PBLUC_HILL_SLOPE 11.1, PBLUC_R_SQUARED 0.631, read-out: LUCIFERASE INFECTION ASSAY - IC50): 2.94 µM"
Cc1csc(NC(=O)Nc2cc(C(F)(F)F)cc(C(F)(F)F)c2)c1Cl,,2.61,"IC50 (HEPG2TOX_HILL_SLOPE 3.35, HEPG2TOX_R_SQUARED 0.976, PBLUC_HILL_SLOPE 39.1, PBLUC_R_SQUARED 0.116, read-out: LUCIFERASE INFECTION ASSAY - IC50): 2.47 µM"
N#Cc1cc(C(=O)c2cc(F)ccc2OC(=O)C2(c3ccccc3)CC2)cn(Cc2ccccc2)c1=O,> 10,> 10,
CCOC(=O)c1c(-c2ccccc2)oc2ccc(NS(=O)(=O)c3ccc(CC)cc3)cc12,,9.53,"IC50 (FFLUC_HILL_SLOPE 0.825, FFLUC_R_SQUARED 0.206, HEPG2TOX_HILL_SLOPE 3.18, HEPG2TOX_R_SQUARED 0.941, PBLUC_HILL_SLOPE 22.5, PBLUC_R_SQUARED 0.586, read-out: LUCIFERASE INFECTION ASSAY - IC50): 8.65 µM"
CC(C#N)(NC(=O)CN1CCN(S(=O)(=O)c2ccc(Cl)s2)CC1)C1CC1 (stereo not given),,> 10,"IC50 (PBLUC_HILL_SLOPE 12.5, PBLUC_R_SQUARED 0.341, read-out: LUCIFERASE INFECTION ASSAY - IC50): 9.26 µM"
Cc1noc(C)c1COc1ccc(C(=O)OCC(=O)NC(C)C23CC4CC(CC(C4)C2)C3)cc1 (stereo not given),> 10,> 10,
COCCNc1cc(C(C)C)nc2c(-c3ccccc3)cnn12,,> 10.6,"IC50 (PBLUC_HILL_SLOPE 1.73, PBLUC_R_SQUARED 0.539, read-out: LUCIFERASE INFECTION ASSAY - IC50): 3.04 µM"
CC(C)c1ccc(N2C(=O)C=CC2=O)cc1,,> 15.3,"IC50 (HEPG2TOX_HILL_SLOPE 8.61, HEPG2TOX_R_SQUARED 0.25, PBLUC_HILL_SLOPE 3.82, PBLUC_R_SQUARED 0.327, read-out: LUCIFERASE INFECTION ASSAY - IC50): 9.69 µM"
CN(C)S(=O)(=O)c1cccc(COC(=O)C2(c3ccc(F)cc3)CCCC2)c1,,> 10,"IC50 (PBLUC_HILL_SLOPE 13, PBLUC_R_SQUARED 0.517, read-out: LUCIFERASE INFECTION ASSAY - IC50): 8.83 µM"

Structure (SMILES),IC50 [1] [µM],IC90 [µM],other results
C=C(C)CN(CC)c1nc(N)c(C#N)c(C(C#N)Cc2ccc(C)cc2)c1C#N (stereo not given),,8.18,"IC50 (HEPG2TOX_HILL_SLOPE 73.4, HEPG2TOX_R_SQUARED 0.557, PBLUC_HILL_SLOPE 3.82, PBLUC_R_SQUARED 0.311, read-out: LUCIFERASE INFECTION ASSAY - IC50): 4.6 µM"
CC(C)Cn1c(SCc2cn3cc(Cl)ccc3n2)nc2ccccc2c1=O,,7.86,"IC50 (HEPG2TOX_HILL_SLOPE 1.44, HEPG2TOX_R_SQUARED 0.631, PBLUC_HILL_SLOPE 96, PBLUC_R_SQUARED 0.548, read-out: LUCIFERASE INFECTION ASSAY - IC50): 7.68 µM"
N=c1c2ccccc2nnn1-c1ccc(C(F)(F)F)cc1,,7.24,"IC50 (PBLUC_HILL_SLOPE 2.81, PBLUC_R_SQUARED 0.81, read-out: LUCIFERASE INFECTION ASSAY - IC50): 3.32 µM"
CNc1nc2cnc(Nc3cccc(N(C)C)c3)cc2n1-c1cc(OC)c(OC)c(OC)c1,> 10,> 10,
Nc1ncc(-c2cccc(OC(F)(F)F)c2)cc1-c1cccnc1,,> 9.96,"IC50 (HEPG2TOX_HILL_SLOPE 1.26, HEPG2TOX_R_SQUARED 0.924, PBLUC_HILL_SLOPE 2.1, PBLUC_R_SQUARED 0.295, read-out: LUCIFERASE INFECTION ASSAY - IC50): 5.18 µM"
Oc1ccc(Cl)cc1/C=N/Nc1cccc(C(F)(F)F)c1,,> 10.5,"IC50 (HEPG2TOX_HILL_SLOPE 5.54, HEPG2TOX_R_SQUARED 0.477, read-out: LUCIFERASE INFECTION ASSAY - IC50): > 10.5 µM"
Fc1cccc(-c2nc3ccnc(Nc4ccccc4)c3[nH]2)c1,,> 10,"IC50 (HEPG2TOX_HILL_SLOPE 0.405, HEPG2TOX_R_SQUARED 0.516, PBLUC_HILL_SLOPE 2.81, PBLUC_R_SQUARED 0.545, read-out: LUCIFERASE INFECTION ASSAY - IC50): 5.99 µM"
O=C1C=C(c2ccccc2)C(=O)N1Nc1ccccc1,> 12.5,> 12.5,
CC1=NN(c2ccc(C)cc2)C(=O)C1=C1SCCS1,1.99,> 11.4,
COc1cc(/C=N/NC(=S)Nc2ccccc2OC)ccc1O,,> 9.96,"IC50 (FFLUC_HILL_SLOPE 0.707, FFLUC_R_SQUARED 0.581, PBLUC_HILL_SLOPE 0.242, PBLUC_R_SQUARED 0.281, read-out: LUCIFERASE INFECTION ASSAY - IC50): > 9.96 µM"
CC(OC(=O)c1cccc(-n2cccc2)c1)C(=O)N1CCCC1 (stereo not given),,8.03,"IC50 (PBLUC_HILL_SLOPE 4.03, PBLUC_R_SQUARED 0.34, read-out: LUCIFERASE INFECTION ASSAY - IC50): 4.65 µM"
O=C(NNc1cccc(Cl)c1)c1c[nH]c(=S)n1-c1ccccc1,,> 10,"IC50 (PBLUC_HILL_SLOPE 16, PBLUC_R_SQUARED 0.438, read-out: LUCIFERASE INFECTION ASSAY - IC50): 9.92 µM"
O=C(NCc1ccccc1CN1CCOCC1)c1cccc(C(F)(F)F)c1,> 10,> 10,
COC(=O)c1ccc(=O)n(CC(=O)Nc2ccc(C(C)(C)C)cc2)c1,,> 10,"IC50 (PBLUC_HILL_SLOPE 11, PBLUC_R_SQUARED 0.594, read-out: LUCIFERASE INFECTION ASSAY - IC50): 9.09 µM"
O=C(c1ccco1)N1CCc2nc(NCc3cccc(Oc4ccccc4)c3)ncc2C1,,2.99,"IC50 (HEPG2TOX_HILL_SLOPE 1.64, HEPG2TOX_R_SQUARED 0.989, PBLUC_HILL_SLOPE 13.2, PBLUC_R_SQUARED 0.473, read-out: LUCIFERASE INFECTION ASSAY - IC50): 2.53 µM"
CC1(c2ccc3ccccc3c2)NC(=O)N(CC(=O)NC(CN2CCOCC2)c2ccccc2)C1=O (stereo not given),> 10,> 10,
CCOC(=O)c1c(NC(=O)COC(=O)c2c(C)noc2C)sc(-c2ccccc2)c1C,> 10,> 10,
COc1ccc(N/N=C(\C=N\O)C(=O)c2ccccc2)cc1,,5.58,"IC50 (HEPG2TOX_HILL_SLOPE 1.74, HEPG2TOX_R_SQUARED 0.984, PBLUC_HILL_SLOPE 2.38, PBLUC_R_SQUARED 0.768, read-out: LUCIFERASE INFECTION ASSAY - IC50): 2.22 µM"
Cc1cccc(N2CCN(C(=O)c3nn(-c4ccccc4)c(=O)c4ccccc34)CC2)c1C,> 10,> 10,
CCN(CC)c1ccc(/C=N/Nc2ccc(C)cc2C)c(O)c1,,> 10,"IC50 (FFLUC_HILL_SLOPE 17.2, FFLUC_R_SQUARED 0.349, PBLUC_HILL_SLOPE 3.28, PBLUC_R_SQUARED 0.115, read-out: LUCIFERASE INFECTION ASSAY - IC50): 5.38 µM"
